Common to all, as to assay type: functional
Experiment [1] deals with Helicobacter pylori. Briefly: The compound was evaluated in vitro for the minimum inhibitory concentration against Helicobacter pylori (13001).
For experiment [2], the system named is Helicobacter pylori. Briefly: The compound was evaluated in vitro for the minimum inhibitory concentration against Helicobacter pylori (16021).
The test system of experiment [3] is Helicobacter pylori. Briefly: The compound was evaluated in vitro for the minimum inhibitory concentration against Helicobacter pylori (9005).
Experiment [4] relates to Helicobacter pylori. Briefly: The compound was evaluated in vitro for the minimum inhibitory concentration against Helicobacter pylori (FP1757).
Experiment [5] concerns Mus musculus. Briefly: The compound was evaluated in vivo for the therapeutic efficacy at 0.1 mg/kg in mouse infection model; 5/8.
The subject of experiment [6] is Mus musculus. Briefly: The compound was evaluated in vivo for the therapeutic efficacy at 0.32 mg/kg in mouse infection model; 8/8.
Experiment [7] concerns Mus musculus. Briefly: The compound was evaluated in vivo for the therapeutic efficacy at 0.1 mg/kg in mouse infection model; 0/8.
Experiment [8] deals with Mus musculus. Briefly: The compound was evaluated in vivo for the therapeutic efficacy at 0.32 mg/kg in mouse infection model; 1/8.
The test system of experiment [9] is Mus musculus. Description: The compound was evaluated in vivo for the therapeutic efficacy at 1.0 mg/kg in mouse infection model; 3/8.
Experiment [10] relates to Mus musculus. Briefly: The compound was evaluated in vivo for the therapeutic efficacy at 3.2 mg/kg in mouse infection model; 7/8.
Experiment [11] has as its system Mus musculus. Briefly: The compound was evaluated in vivo for the therapeutic efficacy at 0.32 mg/kg in mouse infection model; 0/8.
The subject of experiment [12] is Mus musculus. Description: The compound was evaluated in vivo for the therapeutic efficacy at 3.2 mg/kg in mouse infection model; 0/8.
In experiment [13] the test system is Mus musculus. Briefly: The compound was evaluated in vivo for the therapeutic efficacy at 1.0 mg/kg in mouse infection model; 0/8.

SMILES strings stand for the structures. Values after ≈ are worked out from the molar mass of the structure shown.

For the compound `Cc1nnc(SC2=C(C(=O)O)N3C(=O)[C@@H](NC(=O)Cc4ccccc4)[C@H]3SC2)s1`, the MIC was 0.00078 µg/mL (≈ 0.00174 µM) in the experiment on Helicobacter pylori [1], 0.0016 µg/mL (≈ 0.00357 µM) with Helicobacter pylori [2], 0.00625 µg/mL (≈ 0.0139 µM) against Helicobacter pylori [3] and 0.00156 µg/mL (≈ 0.00348 µM) against Helicobacter pylori [4]. Also, the Therapeutic efficacy is recorded as 5 with Mus musculus [5] and 8 in the experiment with Mus musculus [6].
In the case of `CC1(C)S[C@@H]2[C@H](NC(=O)[C@H](N)c3ccc(O)cc3)C(=O)N2C1C(=O)O` (single isomer, unassigned) [AMOXICILLIN], the MIC in the experiment on Helicobacter pylori [1] is 0.025 µg/mL (≈ 0.0684 µM); with Helicobacter pylori [2], 0.025 µg/mL (≈ 0.0684 µM); in the experiment on Helicobacter pylori [3], 0.05 µg/mL (≈ 0.137 µM); in the experiment with Helicobacter pylori [4], 0.0125 µg/mL (≈ 0.0342 µM). Further, the Therapeutic efficacy with Mus musculus [7] was found to be 0; in the experiment with Mus musculus [8], 1; with Mus musculus [9] it was 3; with Mus musculus [10] it was 7.
`CC[C@H]1OC(=O)[C@H](C)[C@@H](O[C@H]2C[C@@](C)(OC)[C@@H](O)[C@H](C)O2)[C@H](C)[C@@H](O[C@@H]2O[C@H](C)C[C@H](N(C)C)[C@H]2O)[C@](C)(OC)C[C@@H](C)C(=O)[C@H](C)[C@@H](O)[C@]1(C)O` [CLARITHROMYCIN]: the MIC in the experiment on Helicobacter pylori [1] was 0.05 µg/mL (≈ 0.0668 µM); in the experiment with Helicobacter pylori [2], 50 µg/mL (≈ 66.8 µM); with Helicobacter pylori [3], 0.2 µg/mL (≈ 0.267 µM); with Helicobacter pylori [4] it was 0.1 µg/mL (≈ 0.134 µM). The Therapeutic efficacy with Mus musculus [11], in the experiment on Mus musculus [12] and in the experiment on Mus musculus [13] was 0 in each case.

The term MIC denotes the least concentration at which growth counts as inhibited. Low readings indicate inhibition by little substance, high ones a need for much substance.

Values taken from ChEMBL document CHEMBL1132501, “Synthesis and anti-Helicobacter pylori activity of FR182024, a new cephem derivative” (1999).
